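All cell lines were grown in 96-well plates and treated with compound for 48 hours. GI50 = concentration required for 50% inhibition of growth. The concentration for full growth arrest is given as TGI.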
Columns and labels:
Assay in all cases: NCI tumour cell line growth inhibition, 48 h
UACC-257 melanoma = test system: UACC-257 melanoma
SF-539 CNS = test system: SF-539 CNS
LOX IMVI melanoma = test system: LOX IMVI melanoma
SK-MEL-5 melanoma = test system: SK-MEL-5 melanoma
NCI-H522 lung = test system: NCI-H522 lung
HCC-2998 colon = test system: HCC-2998 colon
IGROV1 ovarian = test system: IGROV1 ovarian
MCF7 breast = test system: MCF7 breast
OVCAR-8 ovarian = test system: OVCAR-8 ovarian
OVCAR-5 ovarian = test system: OVCAR-5 ovarian
HCT-15 colon = test system: HCT-15 colon
SF-295 CNS = test system: SF-295 CNS
SK-MEL-28 melanoma = test system: SK-MEL-28 melanoma
SNB-75 CNS = test system: SNB-75 CNS
NCI/ADR-RES ovarian = test system: NCI/ADR-RES ovarian
CAKI-1 renal = test system: CAKI-1 renal
SW-620 colon = test system: SW-620 colon
HOP-92 NSCLC = test system: HOP-92 NSCLC
NCI-H226 lung = test system: NCI-H226 lung
HT29 colon = test system: HT29 colon
SR leukemia = test system: SR leukemia
K-562 leukemia = test system: K-562 leukemia
MOLT-4 leukemia = test system: MOLT-4 leukemia
U251 CNS = test system: U251 CNS
SN12C renal = test system: SN12C renal
OVCAR-4 ovarian = test system: OVCAR-4 ovarian
UACC-62 melanoma = test system: UACC-62 melanoma
COLO 205 colon = test system: COLO 205 colon
EKVX NSCLC = test system: EKVX NSCLC
MDA-MB-231 breast = test system: MDA-MB-231 breast
CCRF-CEM leukemia = test system: CCRF-CEM leukemia
HL-60(TB) leukemia = test system: HL-60(TB) leukemia
HCT-116 colon = test system: HCT-116 colon
PC-3 prostate = test system: PC-3 prostate
SNB-19 CNS = test system: SNB-19 CNS
TK-10 renal = test system: TK-10 renal
786-0 renal = test system: 786-0 renal
MALME-3M melanoma = test system: MALME-3M melanoma
KM12 colon = test system: KM12 colon
T-47D breast = test system: T-47D breast
M14 melanoma = test system: M14 melanoma
BT-549 breast = test system: BT-549 breast
DU-145 prostate = test system: DU-145 prostate
RPMI-8226 leukemia = test system: RPMI-8226 leukemia
NCI-H23 lung = test system: NCI-H23 lung
NCI-H460 lung = test system: NCI-H460 lung
ACHN renal = test system: ACHN renal
RXF 393 renal = test system: RXF 393 renal
SF-268 CNS = test system: SF-268 CNS
HS 578T breast = test system: HS 578T breast
SK-OV-3 ovarian = test system: SK-OV-3 ovarian
SK-MEL-2 melanoma = test system: SK-MEL-2 melanoma
UO-31 renal = test system: UO-31 renal
A549 NSCLC = test system: A549 NSCLC
HOP-62 NSCLC = test system: HOP-62 NSCLC
A498 renal = test system: A498 renal
OVCAR-3 ovarian = test system: OVCAR-3 ovarian
MDA-MB-435 = test system: MDA-MB-435

## COc1ccc(Cn2cc3c(c2-c2cc(OC)c(OC)c(OC)c2)CCc2c(CN4CCOCC4)noc2-3)cc1
UACC-257 melanoma
  GI50: 963 nM
  TGI: > 100 µM
SF-539 CNS
  GI50: 448 nM
  TGI: > 100000 nM
LOX IMVI melanoma
  GI50: 446 nM
  TGI: > 100 µM
SK-MEL-5 melanoma
  GI50: 1150 nM
  TGI: 14.3 µM
NCI-H522 lung
  GI50: 269 nM
  TGI: 816 nM
HCC-2998 colon
  GI50: 1740 nM
  TGI: > 100 µM
IGROV1 ovarian
  GI50: 871 nM
  TGI: > 100 µM
MCF7 breast
  GI50: 362 nM
  TGI: > 100 µM
OVCAR-8 ovarian
  GI50: 1800 nM
  TGI: > 100 µM
OVCAR-5 ovarian
  GI50: 3220 nM
  TGI: > 100 µM
HCT-15 colon
  GI50: 457 nM
  TGI: > 100 µM
SF-295 CNS
  GI50: 426 nM
  TGI: > 100 µM
SK-MEL-28 melanoma
  GI50: > 47.7 µM
  TGI: > 100 µM
SNB-75 CNS
  GI50: 308 nM
  TGI: > 100 µM
NCI/ADR-RES ovarian
  GI50: 450 nM
  TGI: > 100 µM
CAKI-1 renal
  GI50: 565 nM
  TGI: > 100 µM
SW-620 colon
  GI50: 458 nM
  TGI: > 100 µM
HOP-92 NSCLC
  GI50: 667 nM
  TGI: > 100 µM
NCI-H226 lung
  GI50: 821 nM
  TGI: > 100 µM
HT29 colon
  GI50: 637 nM
  TGI: > 100 µM
SR leukemia
  GI50: 350 nM
  TGI: > 100 µM
K-562 leukemia
  GI50: 399 nM
  TGI: > 100 µM
MOLT-4 leukemia
  GI50: 2590 nM
  TGI: > 100 µM
U251 CNS
  GI50: 779 nM
  TGI: > 100 µM
SN12C renal
  GI50: 3670 nM
  TGI: > 100 µM
OVCAR-4 ovarian
  GI50: 18.6 µM
  TGI: > 100 µM
UACC-62 melanoma
  GI50: 488 nM
  TGI: > 100 µM
COLO 205 colon
  GI50: 1230 nM
  TGI: 6.08 µM
EKVX NSCLC
  GI50: 1350 nM
  TGI: > 100 µM
MDA-MB-231 breast
  GI50: 2810 nM
  TGI: > 100 µM
CCRF-CEM leukemia
  GI50: 1070 nM
  TGI: > 100 µM
HL-60(TB) leukemia
  GI50: 387 nM
  TGI: 13.1 µM
HCT-116 colon
  GI50: 443 nM
  TGI: > 100 µM
PC-3 prostate
  GI50: 550 nM
  TGI: > 100 µM
SNB-19 CNS
  GI50: 1150 nM
  TGI: > 100 µM
TK-10 renal
  GI50: > 100 µM
  TGI: > 100 µM
786-0 renal
  GI50: 668 nM
  TGI: > 100 µM
MALME-3M melanoma
  GI50: 495 nM
  TGI: > 100 µM
KM12 colon
  GI50: 435 nM
  TGI: > 100 µM
T-47D breast
  TGI: > 100 µM
M14 melanoma
  GI50: 555 nM
  TGI: > 100 µM
BT-549 breast
  GI50: 1140 nM
  TGI: 4.97 µM
DU-145 prostate
  GI50: 2190 nM
  TGI: > 100 µM
RPMI-8226 leukemia
  GI50: 1160 nM
  TGI: > 100000 nM
NCI-H23 lung
  GI50: 1850 nM
  TGI: > 100 µM
NCI-H460 lung
  GI50: 506 nM
  TGI: > 100 µM
ACHN renal
  GI50: 718 nM
  TGI: > 100 µM
RXF 393 renal
  GI50: 382 nM
  TGI: > 100000 nM
SF-268 CNS
  GI50: 870 nM
  TGI: > 100 µM
HS 578T breast
  GI50: 432 nM
  TGI: > 100 µM
SK-OV-3 ovarian
  GI50: 1.47 µM
  TGI: > 100 µM
SK-MEL-2 melanoma
  GI50: 549 nM
  TGI: > 100 µM
UO-31 renal
  GI50: 674 nM
  TGI: > 100 µM
A549 NSCLC
  GI50: 1130 nM
  TGI: > 100 µM
HOP-62 NSCLC
  GI50: 1030 nM
  TGI: > 100 µM
A498 renal
  GI50: 305 nM
  TGI: 1030 nM

## CN(c1ccc(Br)cc1)S(=O)(=O)c1ccc(-c2cnc(C3CC3)o2)cc1
UACC-257 melanoma
  GI50: > 53300 nM
  TGI: > 100 µM
SF-539 CNS
  GI50: 142 nM
  TGI: 2700 nM
LOX IMVI melanoma
  GI50: 93.9 nM
  TGI: > 100 µM
NCI-H522 lung
  GI50: 374 nM
  TGI: > 100000 nM
HCC-2998 colon
  GI50: 299 nM
  TGI: > 100 µM
IGROV1 ovarian
  GI50: 253 nM
  TGI: > 100 µM
MCF7 breast
  GI50: 45.1 nM
  TGI: > 100 µM
OVCAR-8 ovarian
  GI50: 597 nM
  TGI: > 100 µM
OVCAR-5 ovarian
  GI50: 524 nM
  TGI: > 100 µM
HCT-15 colon
  GI50: 60.3 nM
  TGI: > 100 µM
SF-295 CNS
  GI50: 71.2 nM
  TGI: > 100 µM
SK-MEL-28 melanoma
  GI50: 9.45 µM
  TGI: > 100 µM
SNB-75 CNS
  GI50: 114 nM
  TGI: > 52.1 µM
OVCAR-3 ovarian
  GI50: 109 nM
  TGI: 5.27 µM
NCI/ADR-RES ovarian
  GI50: 73.2 nM
  TGI: > 40.7 µM
CAKI-1 renal
  GI50: 84.6 nM
  TGI: > 100 µM
SW-620 colon
  GI50: 82.7 nM
  TGI: > 100 µM
MDA-MB-435
  GI50: 30.9 nM
  TGI: 111 nM
NCI-H226 lung
  GI50: 284 nM
  TGI: 7.52 µM
HT29 colon
  GI50: 210 nM
  TGI: > 100 µM
SR leukemia
  GI50: 48.5 nM
  TGI: > 100 µM
K-562 leukemia
  GI50: 41.9 nM
  TGI: > 100 µM
MOLT-4 leukemia
  GI50: 286 nM
  TGI: > 100 µM
U251 CNS
  GI50: 324 nM
  TGI: > 100 µM
SN12C renal
  GI50: 1030 nM
  TGI: > 100 µM
OVCAR-4 ovarian
  GI50: 0.774 µM
  TGI: > 100 µM
UACC-62 melanoma
  GI50: 65.8 nM
  TGI: > 100 µM
COLO 205 colon
  GI50: 370 nM
  TGI: > 100 µM
EKVX NSCLC
  GI50: 454 nM
  TGI: > 100 µM
MDA-MB-231 breast
  GI50: 480 nM
  TGI: > 27.4 µM
CCRF-CEM leukemia
  GI50: 86.2 nM
  TGI: > 100 µM
HL-60(TB) leukemia
  GI50: 32.6 nM
  TGI: 0.142 µM
HCT-116 colon
  GI50: 129 nM
  TGI: > 100 µM
PC-3 prostate
  GI50: 121 nM
  TGI: > 100 µM
SNB-19 CNS
  GI50: 271 nM
  TGI: > 100 µM
TK-10 renal
  GI50: > 64.4 µM
  TGI: > 100 µM
786-0 renal
  GI50: 397 nM
  TGI: > 100 µM
MALME-3M melanoma
  GI50: 3840 nM
  TGI: > 100 µM
KM12 colon
  GI50: 225 nM
  TGI: > 100 µM
T-47D breast
  GI50: 839 nM
  TGI: > 100 µM
M14 melanoma
  GI50: 156 nM
  TGI: > 100 µM
BT-549 breast
  GI50: 2960 nM
  TGI: > 100 µM
DU-145 prostate
  GI50: 375 nM
  TGI: > 100 µM
RPMI-8226 leukemia
  GI50: 209 nM
  TGI: 2470 nM
NCI-H23 lung
  GI50: 393 nM
  TGI: > 100 µM
ACHN renal
  GI50: 677 nM
  TGI: > 100 µM
RXF 393 renal
  GI50: 85.9 nM
  TGI: 403 nM
SF-268 CNS
  GI50: 1160 nM
  TGI: > 100 µM
HS 578T breast
  GI50: 279 nM
  TGI: > 100 µM
SK-OV-3 ovarian
  GI50: 5.33 µM
  TGI: > 100 µM
SK-MEL-2 melanoma
  GI50: 1340 nM
  TGI: > 100 µM
UO-31 renal
  GI50: 880 nM
  TGI: > 100 µM
A549 NSCLC
  GI50: 321 nM
  TGI: > 100 µM
HOP-62 NSCLC
  GI50: 412 nM
  TGI: > 100 µM
A498 renal
  GI50: 50 nM
  TGI: 700 nM

— PubChem BioAssay (NCI)
